Results as given in US11186544B2 (BRISTOL-MYERS SQUIBB COMPANY, priority 2017, dated 2021).

How the values were obtained:
[1] = biological target: human FPR2 (Homo sapiens (Human), UniProt P25090); assay: FPR2 cyclic adenosine monophosphate (cAMP) assay; assay type: cell-based; details: CHO cells overexpressing human FPR2; inhibition of forskolin (5 μM) stimulated cAMP; read-out: hFPR2 cAMP2 EC50
Method: FPR2 and FPR1 Cyclic Adenosine Monophosphate (cAMP) Assays. A mixture of forskolin (5 μM final for FPR2 or 10 μM final for FPR1) and IBMX (200 μM final) were added to 384-well Proxiplates (Perkin-Elmer) pre-dotted with test compounds in DMSO (1% final) at final concentrations in the range of 0.020 nM to 100 μM. Chinese Hamster Ovary cells (CHO) overexpressing human FPR1 or human FPR2 receptors were cultured in F-12 (Ham's) medium supplemented with 10% qualified FBS, 250 μg/ml zeocin and 300 μg/ml hygromycin (Life Technologies). Reactions were initiated by adding 2,000 human FPR2 cells per well or 4,000 human FPR1 cells per well in Dulbecco's PBS (with calcium and magnesium) (Life Technologies) supplemented with 0.1% BSA (Perkin-Elmer). The reaction mixtures were incubated for 30 min at room temperature. The level of intracellular cAMP was determined using the HTRF HiRange cAMP assay reagent kit (Cisbio) according to manufacturer's instruction. Solutions of cryptate conjugated anti-cAMP and d2 flurorophore-labelled cAMP were made in a supplied lysis buffer separately. Upon completion of the reaction, the cells were lysed with equal volume of the d2-cAMP solution and anti-cAMP solution. […] The potency and activity of a compound to inhibit cAMP production was then determined by fitting to a 4-parametric logistic equation from a plot of cAMP level versus compound concentrations.

[2] = biological target: human FPR1 (Homo sapiens (Human), UniProt P21462); assay: FPR1 cyclic adenosine monophosphate (cAMP) assay; assay type: cell-based; details: CHO cells overexpressing human FPR1; inhibition of forskolin (10 μM) stimulated cAMP; read-out: hFPR1 cAMP EC50
Method: FPR2 and FPR1 Cyclic Adenosine Monophosphate (cAMP) Assays. A mixture of forskolin (5 μM final for FPR2 or 10 μM final for FPR1) and IBMX (200 μM final) were added to 384-well Proxiplates (Perkin-Elmer) pre-dotted with test compounds in DMSO (1% final) at final concentrations in the range of 0.020 nM to 100 μM. Chinese Hamster Ovary cells (CHO) overexpressing human FPR1 or human FPR2 receptors were cultured in F-12 (Ham's) medium supplemented with 10% qualified FBS, 250 μg/ml zeocin and 300 μg/ml hygromycin (Life Technologies). Reactions were initiated by adding 2,000 human FPR2 cells per well or 4,000 human FPR1 cells per well in Dulbecco's PBS (with calcium and magnesium) (Life Technologies) supplemented with 0.1% BSA (Perkin-Elmer). The reaction mixtures were incubated for 30 min at room temperature. The level of intracellular cAMP was determined using the HTRF HiRange cAMP assay reagent kit (Cisbio) according to manufacturer's instruction. Solutions of cryptate conjugated anti-cAMP and d2 flurorophore-labelled cAMP were made in a supplied lysis buffer separately. Upon completion of the reaction, the cells were lysed with equal volume of the d2-cAMP solution and anti-cAMP solution. After a 1-h room temperature incubation, time-resolved fluorescence intensity was measured using the Envision (Perkin-Elmer) at 400 nm excitation and dual emission at 590 nm and 665 nm. A calibration curve was constructed with an external cAMP standard at concentrations ranging from 1 μM to 0.1 pM by plotting the fluorescent intensity ratio from 665 nm emission to the intensity from the 590 nm emission against cAMP concentrations. The potency and activity of a compound to inhibit cAMP production was then determined by fitting to a 4-parametric logistic equation from a plot of cAMP level versus compound concentrations.

Chain of human FPR2 (P25090 whole entry): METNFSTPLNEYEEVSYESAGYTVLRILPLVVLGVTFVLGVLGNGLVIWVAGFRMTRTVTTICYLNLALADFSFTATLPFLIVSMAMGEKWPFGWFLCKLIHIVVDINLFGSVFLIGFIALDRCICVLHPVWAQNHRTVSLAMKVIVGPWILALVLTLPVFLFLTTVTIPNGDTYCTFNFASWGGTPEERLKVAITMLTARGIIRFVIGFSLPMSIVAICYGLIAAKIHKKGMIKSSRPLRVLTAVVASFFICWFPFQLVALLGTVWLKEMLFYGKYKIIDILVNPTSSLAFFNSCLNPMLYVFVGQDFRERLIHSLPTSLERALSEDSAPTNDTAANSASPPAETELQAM
Chain of human FPR1 (P21462 whole entry): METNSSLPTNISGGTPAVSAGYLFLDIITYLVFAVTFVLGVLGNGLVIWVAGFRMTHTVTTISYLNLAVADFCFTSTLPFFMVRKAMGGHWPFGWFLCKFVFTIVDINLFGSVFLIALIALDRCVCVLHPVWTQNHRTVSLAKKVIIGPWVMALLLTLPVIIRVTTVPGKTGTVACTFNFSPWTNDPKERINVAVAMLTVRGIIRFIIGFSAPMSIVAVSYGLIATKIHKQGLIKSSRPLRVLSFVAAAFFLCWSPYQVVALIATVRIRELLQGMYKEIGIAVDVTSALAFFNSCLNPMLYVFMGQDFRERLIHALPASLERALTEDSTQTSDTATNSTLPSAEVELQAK

Compound	EC50 [1]	EC50 [2]
Cc1ccc(NC(=O)N[C@@H]2CCCN(c3ccc(-c4ccccc4C(N)=O)cc3)C2=O)c(C)c1 [Example 175]	520 nM	2600 nM
CS(=O)(=O)Nc1ccccc1-c1ccc(N2C[C@H](O)C[C@H](NC(=O)Nc3ncc(Cl)cc3F)C2=O)cc1 [Example 214]	2.24 nM	160 nM
O=C(Nc1ccc(Cl)cc1)N[C@@H]1CCCN(c2ccc(-c3ccccc3CO)cc2)C1=O [Example 77]	0.68 nM	8.8 nM
Cc1cnc(NC(=O)N[C@@H]2CCCN(c3ccc(-c4ccccc4NS(C)(=O)=O)cc3F)C2=O)cn1 [Example 258]	20 nM	> 10000 nM
COc1cc(-c2ccccc2NS(C)(=O)=O)ccc1N1CCC[C@@H](NC(=O)Nc2ncc(C(F)(F)F)cc2F)C1=O [Example 255]	17 nM	3300 nM
CS(=O)(=O)c1ccccc1-c1ccc(N2CCCC(NC(=O)Nc3ccc(Cl)nn3)C2=O)c(F)c1 (stereo not drawn) [Example 27, 1-(6-chloropyridazin-3-yl)-3-(1-(3-fluoro-2′-(methylsulfonyl)-[1,1′-biphenyl]-4-yl)-2-oxopiperidin-3-yl)urea]	400 nM	950 nM
COc1ccc(NC(=O)N[C@@H]2CCCN(c3ccc(-c4ccccc4NS(C)(=O)=O)cc3)C2=O)cc1 [Example 199]	0.28 nM	140 nM
COc1cnc(NC(=O)N[C@@H]2CCCN(c3ccc(-c4ccccc4NS(C)(=O)=O)c(F)c3)C2=O)c(F)c1 [Example 259]	22 nM	2000 nM
CC(C)(C)NS(=O)(=O)c1ccccc1-c1ccc(N2CCC[C@@H](NC(=O)Nc3ccc(Cl)cc3)C2=O)cc1 [Example 183]	0.46 nM	0.56 nM
CS(=O)(=O)Nc1ccccc1-c1ccc(N2C[C@H](O)C[C@@H](NC(=O)Nc3ccc(C(F)(F)F)cc3)C2=O)cc1 [Example 213]	0.75 nM	110 nM
CS(=O)(=O)c1ccc(-c2ccc(N3CCCC(NC(=O)Nc4ccc(C(F)(F)F)cc4)C3=O)cc2)cc1 (stereo not drawn) [Example 49, 1-(1-(4′-(methylsulfonyl)-[1,1′-biphenyl]-4-yl)-2-oxopiperidin-3-yl)-3-(4-(trifluoromethyl)phenyl)urea]	850 nM	2100 nM
O=C(Nc1ccc(C(F)(F)F)cc1)NC1CCCN(c2ccc(-c3ccccc3)cc2)C1=O (stereo not drawn) [Example 36, 1-(1-([1,1′-biphenyl]-4-yl)-2-oxopiperidin-3-yl)-3-(4-(trifluoromethyl)phenyl)urea]	9.7 nM	280 nM
CS(=O)(=O)Nc1ccccc1-c1ccc(N2CCC[C@@H](NC(=O)Nc3ccc(C(F)(F)F)cn3)C2=O)cc1 [Example 184]	8.1 nM	1500 nM
NC(=O)c1ccccc1-c1ccc(N2CCC[C@@H](NC(=O)Nc3ccc(C(F)(F)F)cc3)C2=O)cc1 [Example 139]	10 nM	150 nM
NC(=O)c1ccccc1-c1ccc(N2CCC[C@@H](NC(=O)Nc3ccc(F)cc3)C2=O)cc1 [Example 174]	450 nM	900 nM
CS(=O)(=O)Nc1ccccc1-c1ccc(N2C[C@H](O)C[C@@H](NC(=O)Nc3ccc(Cl)cc3)C2=O)cc1 [Example 211]	0.35 nM	27 nM
NCc1cccc(-c2ccc(N3CCC[C@@H](NC(=O)Nc4ccc(Cl)cc4)C3=O)cc2)c1F [Example 276, (R)-1-(1-(3′-(Aminomethyl)-2′-fluoro-[1,1′-biphenyl]-4-yl)-2-oxopiperidin-3-yl)-3-(4-chlorophenyl)urea]	8.5 nM	680 nM
CS(=O)(=O)Nc1ccccc1-c1ccc(N2CCC[C@@H](NC(=O)Nc3ccc(C(F)(F)F)cc3F)C2=O)cc1 [Example 212]	0.63 nM	120 nM
